pIC50: −log10 of the molar value.
Key:
IκB kinase = biological target: T1, IκB kinase (Homo sapiens, UniProt O14920+O15111); assay: IκB kinase ELISA; format: biochemical
T1 construct: endogenous in cells; host or cells: HeLa S3 (S100 extract; ammonium sulfate cut, Superose-6 fractions at 670 kDa)

protein tyrosine kinase = assay: Protein tyrosine kinase assay (Upstate test kit); format: biochemical; conditions: for Specificity ratio: IC50 protein tyrosine kinase relative to IκB kinase, > denotes better than; for pIC50: ATP concentration of 50 μM, substrate Poly (Glu, Tyr 4:1) 1 mg/ml
Description: As examples of the specificities of the IκB kinase inhibitors which had been discovered, their IC50 values were determined in the case of the kinase enzyme protein tyrosine kinase.
Protein tyrosine kinase activity was determined using the appropriate test kit from Upstate Biotechnologie in accordance with the manufacturer's instructions and at an ATP concentration of 50 μM. As a difference from the manufacturer's method, Multi-Screen plates (Millipore; phosphocellulose MS-PH, cat. MAPHNOB10, or Durapore PVDF, cat. MADVNOB 50), were used, together with the appropriate exhaust system, instead of phospho-cellulose filters. Poly (Glu, Tyr 4:1) (Sigma cat. P0275) was used as the test kit substrate at a test concentration of 1 mg/ml. The plates were then measured in a Wallac MicroBeta scintillation counter. 100 μM of the test substance were used in each case.
The test substance was tested in a duplicate determination. The IC50 calculations were performed using the GraFit 3.0 software package.

[1] = Blood plasma level after oral administration, male C57/BL6 mice; format: in vivo; conditions: about 25 mg/kg orally as suspension in 0.5% HEC, sampling 0.25-8 hours
Description: Blood plasma level of N-[(S)-2-diphenylamino-1-(5-oxo-4,5-dihydro[1,3,4]-oxadiazol-2-yl)ethyl]-2-(2-methylaminopyrimidin-4-yl)-1H-indol-5-carboxamide.
Blood samples were taken after 0.25; 0.5; 1; 2; 4; 6 and 8 hours (sacrificial blood was withdrawn from in each case 2 animals at each of the time points mentioned). The blood samples were converted into heparin plasma. The plasma samples were stored at −20° C. until analyzed.
The plasma samples were thawed. The plasma proteins which interfered with the analysis were then precipitated with acetonitrile.
(§1) Processing: 50 μl of plasma+20 μl of internal standard (5 μg/ml)+50 μl of buffer (2 mMol ammonium formate solution, pH 2.6/acetonitrile, 40:60, v/v) were mixed for about 10 sec on a Whirlmixer. 150 μl of acetonitrile were then added and the whole was mixed once again for about 10 sec. The samples were then centrifuged (Hettich, EBA 12, about 12 000 revolutions per minute). The supernatants (in each case about 200 μl) were transferred to glass tubes. 70 μl of the supernatant were injected.
The lower detection limit of the method is 0.01 μg/mL.

[2] = Comparison experiment: blood plasma level after oral administration, male NMRI mice; format: in vivo
Description: [drawing 27] was prepared as described in WO 01/30774 and is termed the comparison compound below. The comparison compound was administered to male NMRI mice. For this, in each case about 50 mg of the comparison compound per kg of body weight of the mice were administered orally as a suspension in 0.5% HEC (by way of a probang). Blood samples were taken after 0.25; 0.5; 1; 2; 4; 6 and 8 hours (sacrificial blood was withdrawn from in each case 2 animals at each of the time points mentioned). The blood samples were converted into heparin plasma. The plasma samples were stored at −20° C. until analyzed.
Analysis: The analysis was carried out using HPLC/UV.
as §1, with “(1% formic acid/acetonitrile,” for “(2 mMol ammonium formate solution, pH 2.6/acetonitrile,”, “min).” for “minute).”, “100” for “70”

T1 sequence (O14920 whole entry): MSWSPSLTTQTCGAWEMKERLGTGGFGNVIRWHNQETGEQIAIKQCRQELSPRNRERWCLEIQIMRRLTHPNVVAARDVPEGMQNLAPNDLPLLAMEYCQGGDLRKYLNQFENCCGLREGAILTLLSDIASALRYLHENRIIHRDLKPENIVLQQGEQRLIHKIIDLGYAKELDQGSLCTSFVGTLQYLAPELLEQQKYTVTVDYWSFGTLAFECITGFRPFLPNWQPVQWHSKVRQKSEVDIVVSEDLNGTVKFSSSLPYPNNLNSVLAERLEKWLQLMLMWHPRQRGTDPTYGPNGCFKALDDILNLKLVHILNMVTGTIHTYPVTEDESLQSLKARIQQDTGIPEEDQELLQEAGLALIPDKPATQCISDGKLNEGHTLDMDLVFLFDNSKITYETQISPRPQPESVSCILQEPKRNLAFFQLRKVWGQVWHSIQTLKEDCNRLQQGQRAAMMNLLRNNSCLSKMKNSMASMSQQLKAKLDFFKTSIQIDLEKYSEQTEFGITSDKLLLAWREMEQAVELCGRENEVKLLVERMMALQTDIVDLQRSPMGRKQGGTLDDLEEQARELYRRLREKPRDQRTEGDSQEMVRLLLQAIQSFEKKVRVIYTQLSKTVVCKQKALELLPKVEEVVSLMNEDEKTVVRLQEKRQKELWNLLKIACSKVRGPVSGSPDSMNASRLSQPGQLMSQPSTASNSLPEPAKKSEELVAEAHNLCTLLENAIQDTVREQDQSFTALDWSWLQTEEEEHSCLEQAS
T1 sequence (O15111 whole entry): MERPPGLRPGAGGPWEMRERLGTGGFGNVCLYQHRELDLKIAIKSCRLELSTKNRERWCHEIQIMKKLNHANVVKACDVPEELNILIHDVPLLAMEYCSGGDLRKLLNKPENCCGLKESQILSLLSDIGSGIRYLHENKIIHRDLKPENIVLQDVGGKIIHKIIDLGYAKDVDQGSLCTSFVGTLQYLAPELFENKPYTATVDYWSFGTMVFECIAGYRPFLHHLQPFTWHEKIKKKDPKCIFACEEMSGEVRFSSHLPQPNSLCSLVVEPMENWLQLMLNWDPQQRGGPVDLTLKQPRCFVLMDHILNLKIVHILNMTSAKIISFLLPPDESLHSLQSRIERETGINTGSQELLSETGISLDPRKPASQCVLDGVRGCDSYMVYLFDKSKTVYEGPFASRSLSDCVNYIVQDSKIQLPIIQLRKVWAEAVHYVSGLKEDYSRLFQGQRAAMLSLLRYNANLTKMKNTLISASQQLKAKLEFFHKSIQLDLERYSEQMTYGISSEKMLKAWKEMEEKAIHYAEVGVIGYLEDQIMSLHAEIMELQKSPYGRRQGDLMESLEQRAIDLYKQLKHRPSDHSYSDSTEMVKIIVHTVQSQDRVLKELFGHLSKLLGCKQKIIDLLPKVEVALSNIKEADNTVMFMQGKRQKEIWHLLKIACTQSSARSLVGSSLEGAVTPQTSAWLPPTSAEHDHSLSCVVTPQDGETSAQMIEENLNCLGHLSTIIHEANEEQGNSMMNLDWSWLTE
T1 sequence (Q9Y6K9 whole entry partner): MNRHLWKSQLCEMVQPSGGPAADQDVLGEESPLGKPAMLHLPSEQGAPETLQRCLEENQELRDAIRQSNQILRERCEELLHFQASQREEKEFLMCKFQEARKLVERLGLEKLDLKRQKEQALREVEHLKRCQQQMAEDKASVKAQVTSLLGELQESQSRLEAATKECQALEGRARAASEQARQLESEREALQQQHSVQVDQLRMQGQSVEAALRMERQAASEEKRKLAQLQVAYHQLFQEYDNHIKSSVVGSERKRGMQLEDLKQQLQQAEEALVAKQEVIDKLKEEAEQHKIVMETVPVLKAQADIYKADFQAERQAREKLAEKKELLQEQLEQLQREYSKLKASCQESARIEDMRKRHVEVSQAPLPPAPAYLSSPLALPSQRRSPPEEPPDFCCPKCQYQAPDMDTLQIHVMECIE

CNc1nccc(-c2cc3cc(C(=O)NC(CN(c4ccc(F)cc4)c4ccccn4)c4nnc[nH]4)ccc3[nH]2)n1 (stereo not drawn) [Example 36, N-[2-[(4-Fluorophenyl)pyridin-2-ylamino]-1-(4H-[1,2,4]triazol-3-yl)ethyl]-2-(2-methylaminopyrimidin-4-yl)-1H-indole-5-carboxamide]
pIC50 (IκB kinase): 8.30
Specificity ratio (protein tyrosine kinase): >2000

CNc1nccc(-c2nc3cc(C(=O)N[C@@H](CN(c4ccccc4)c4ccccc4)C(N)=O)ccc3[nH]2)n1 [Example 63]
pIC50 (IκB kinase): 8.52
Specificity ratio (protein tyrosine kinase): >1000

CNc1nccc(-c2cc3cc(C(=O)N[C@@H](CN(c4ccccc4)c4ccccn4)c4n[nH]c(=O)o4)ccc3[nH]2)n1 [Example 33, N-[(S)-1-(5-Oxo-4,5-dihydro-1,3,4-oxadiazol-2-yl)-2-(phenylpyridin-2-ylamino)ethyl]-2-(2-methylaminopyrimidin-4-yl)-1H-indole-5-carboxamide]
pIC50 (IκB kinase): 7.92
Specificity ratio (protein tyrosine kinase): >833

CNc1nccc(-c2cc3cc(C(=O)NC(CN(c4ccc(F)cc4)c4ccccn4)C(N)=O)ccc3[nH]2)n1 (stereo not drawn) [Example 30, N-{1–Carbamoyl-2-[(4-fluorophenyl)pyridin-2-ylamino]ethyl}-2-(2-methylaminopyrimidin-4-yl)-1H-indole-5-carboxaminde]
pIC50 (IκB kinase): 7.30
Specificity ratio (protein tyrosine kinase): >200

CNc1nccc(-c2cc3cc(C(=O)NC(CN(c4ccc(F)cc4)c4ncc(C)cn4)C(N)=O)ccc3[nH]2)n1 (stereo not drawn) [Example 61, N-{1–Carbamoyl-2-[(4-fluorophenyl)-(5-methylpyrimidin-2-yl)amino]ethyl}-2-(2-methylaminopyrimidin-4-yl)-1H-indole-5-carboxamide]
pIC50 (IκB kinase): 8.22
Specificity ratio (protein tyrosine kinase): >1650

CNc1nccc(-c2cc3cc(C(=O)NC(CN(c4ccccc4)c4ncccn4)C(N)=O)ccc3[nH]2)n1 (stereo not drawn) [Example 47, N-{1–Carbamoyl-2[(phenyl)pyrimidin-2-ylamino]ethyl}-2-(2-methylaminopyrimidin-4-yl)-1H-indole-5-carboxamide]
pIC50 (IκB kinase): 8.22
Specificity ratio (protein tyrosine kinase): >1665

CNc1nccc(-c2cc3cc(C(=O)N[C@@H](CN(c4ccccc4)c4ccccn4)C(=O)NOC)ccc3[nH]2)n1 [Example 43, N-[1-Methoxycarbamoyl-2-(phenylpyridin-2-ylamino)ethyl]-S-2-(2-methylaminopyrimidin-4-yl)-1H-indole-5-carboxamide]
pIC50 (IκB kinase): 9.10
Specificity ratio (protein tyrosine kinase): >12500

CNc1nccc(-c2cc3cc(C(=O)N[C@@H](CN(c4ccccc4)c4ccccc4)c4n[nH]c(=O)o4)ccc3[nH]2)n1 [Example 28, N-[(S)-2-Diphenylamino-1-(5-oxo-4,5-dihydro[1,3,4]oxadiazol-2-yl)ethyl]-2-(2-methylaminopyrimidin-4-yl)-1H-indole-5-carboxamide]
pIC50 (protein tyrosine kinase): 4.08
plasma level, at most (maximum blood plasma level) [1]: 4300 ng/mL
AUC ([1]; mouse, plasma, po, read-out: exposure, measured as AUC=area under the curve): 5400 ng·h/mL

CNc1nccc(-c2cc3cc(C(=O)NC(CN(c4ccccc4)c4ncccn4)C(=O)NCCO)ccc3[nH]2)n1 (stereo not drawn) [Example 49, N-[1-(2-Hydroxyethylcarbamoyl)-2-(phenylpyrimidin-2-ylamino)ethyl]-2-(2-methylaminopyrimidin-4-yl)-1H-indole-5-carboxamide]
pIC50 (IκB kinase): 7.46

CNc1nccc(-c2nc3cc(C(=O)NC(CN(c4ccccc4)c4ccccn4)C(N)=O)ccc3[nH]2)n1 (stereo not drawn) [Example 67, N-{1–Carbamoyl-2-[(phenyl)pyridin-2-ylamino]ethyl}-2-(2-methylaminopyrimidin-4-yl)-1H-benzimidazole-5-carboxamide]
pIC50 (IκB kinase): 8.70
Specificity ratio (protein tyrosine kinase): >5000

CCN(C[C@H](NC(=O)c1ccc2[nH]c(-c3ccncc3)cc2c1)C(N)=O)c1ccccc1 [comparison compound]
pIC50 (protein tyrosine kinase): 4.33
ratio of the IC50 values for protein tyrosine kinase relative to IκB kinase (protein tyrosine kinase; for the comparison compound the IκB kinase IC50 is taken from WO 01/30774): 46.35
maximum blood plasma level lower than with compound 28 ([2]; comparison compound 50 mg/kg vs compound 28 25 mg/kg, oral, mice): about 60%
plasma level, at most (maximum blood plasma level) ([2]; male NMRI mice, about 50 mg/kg orally as suspension in 0.5% HEC, sampling 0.25-8 hours): 1500 ng/mL
AUC ([2]; mouse, plasma, po, male NMRI mice, about 50 mg/kg orally as suspension in 0.5% HEC, sampling 0.25-8 hours, read-out: exposure, measured as the AUC=area under the curve): 1700 ng·h/mL

CNc1nccc(-c2cc3cc(C(=O)N[C@@H](CN(c4ccccc4)c4nccc(C(F)(F)F)n4)C(=O)O)ccc3[nH]2)n1 [Example 54, (S)-2-{[2-(2-Methylaminopyrimidin-4-yl)-1H-indole-5-carbonyl]amino}-3-[phenyl-(4-trifluoromethylpyrimidin-2-yl)amino]propionic Acid]
pIC50 (IκB kinase): 8.52
Specificity ratio (protein tyrosine kinase): >3330

CNc1nccc(-c2nc3cc(C(=O)NC(CN(c4ccccc4)c4ncccn4)C(N)=O)ccc3[nH]2)n1 (stereo not drawn) [Example 65, N-{1–Carbamoyl-2-[(phenyl)pyrimidin-2-ylamino]ethyl}2-(2-methylaminopyrimidin-4-yl)-1H-benzimidazole-5-carboxamide]
pIC50 (IκB kinase): 8.40
Specificity ratio (protein tyrosine kinase): >2500

CNc1nccc(-c2cc3cc(C(=O)N[C@@H](CN(c4ccccc4)c4nccs4)C(N)=O)ccc3[nH]2)n1 [Example 42, N-[1–Carbamoyl-2-(phenylthiazol-2-ylamino)ethyl]-S-2-(2-methylaminopyrimidin-4-yl)-1H-indole-5-carboxamide]
pIC50 (IκB kinase): 8.05
Specificity ratio (protein tyrosine kinase): >1110

NC(=O)C(CN(c1ccc(F)cc1)c1ccccn1)NC(=O)c1ccc2[nH]c(-c3ccnc(N)n3)cc2c1 (stereo not drawn) [Example 35, N-{1–Carbamoyl-2-[(4-fluorophenyl)pyridin-2-ylamino]ethyl}-2-(2-aminopyrimidin-4-yl)-1H-indole-5-carboxamide]
pIC50 (IκB kinase): 8.00
Specificity ratio (protein tyrosine kinase): >1000
